Source: article PMC8895007, “Crystal structures of PigF, an O-methyltransferase involved in the prodigiosin synthetic pathway, reveal an induced-fit substrate-recognition mechanism” (IUCrJ, 2022)

B1: PigF, O-methyltransferase of the prodigiosin synthetic pathway from Serratia marcescens FS14 (enzyme)
chain: MPLTKQDAVNQMMGFFQAKALTAALALKLFDQLRDRDADAAHIAARLDCPARSTEQLLIALRAMGYLDQRDGLYHLPAAHRAFLLSDEPQWLGWLGRHIDTFLYPLWGELKTAVRNDAHQRRTVFGDDRSWFDILYQNPDDVADFQEFLGKFAAPFIAGFVRDYDFSQHRAFLDIGSGIGSLPMAIADAYPGIALAICELPQASAFLRDKLTLQGYGERIDVVEGDVISGDLPIGGYDLIHLGWMLHDYAPETQLTILRNIYRAMPAGGRFIASETPLNEDKSGPEFTALLSLNMLVSTDGGIESSAQEYLDRFRLAGFSNARIMKIAGPRTLIVGEK
notes: PigF of Serratia marcescens FS14, 338 amino-acid residues; 100% identical to PigF of S. marcescens VGH107 (NCBI WP 004940222.1); residues 3-338 are seen in both chains of the PigF-SAH structure; Cloned into pET-24b as in Liu et al., 2012; The results call the protein N-terminally polyhistidine-tagged; pET-24b usually adds a C-terminal His tag (surmise); Crystallised with 2 mM SAH (small molecule) …

Legend:
PigF = biological target: T1, PigF (Serratia marcescens, UniProt Q5W249); assay: X-ray crystal structure (co-crystallisation), […] A; assay type: binding; settings: 2 mM SAH premixed 30 min; pH 4.6, 12% MPD; cofactor site in C-terminal catalytic domain
T1 construct: residues 3-338 seen in SAH complex

[1] = biological target: the molecule itself; assay: native gel or EMSA; nondenaturing gel, comparison with standards; PigF in solution

Molecule | X-ray crystal structure (co-crystallisation), 1.97 A (PigF) | stoichiometry N [1]
Nc1ncnc2c1ncn2[C@@H]1O[C@H](CSCC[C@H](N)C(=O)O)[C@@H](O)[C@H]1O [S-adenosylhomocysteine] | the resulting phased map revealed clear electron density for the entire protein molecule and the SAH cofactor | –
B1 | – | 2
